Data taken from patent US9562899B2, “Method of detecting OXA-048 carbapenemase producing bacteria” (BIOMÉRIEUX, priority 2012, dated 2017).

Tests used:
OXA-48 strains [1] = test: Temocillin MIC with EDTA in the medium (Example 2); format: cell-based, Enterobacteriaceae; conditions: Ex 2, MIC in mg/l
Excerpt: (§1) Optimization of the Detection Specificity by Introducing Specific Inhibitors Inhibition of Class B Strains (NDM, VIM, IMP) by Adding EDTA
(§2) Identical to that used to determine the temocillin MICs by agar dilution (example 1).
(§3) For each temocillin concentration, the following concentrations of active EDTA will be tested in the form of disodium EDTA: 0, 1.77, 2.12, 2.47 and 2.83 mmol/l.
(§4) Method: identical to the method used in example 1.

AmpC strains [2] = test: Temocillin MIC with EDTA in the medium (Example 2); format: cell-based, Enterobacteriaceae; conditions: Ex 2, MIC in mg/l
Excerpt: as §1, §2, §3, §4

NDM-1 strains = test: Temocillin MIC, agar dilution (Example 1); format: cell-based, Enterobacteriaceae; conditions: Ex 1; temocillin alone; MIC in mg/l
Procedure: (§5) Determination of the MICs with Respect to Temocillin for a Panel of CPE Strains (Using the Agar Dilution Method)
(§6) Reaction medium: the base is a chromLD™ CPS medium (bioMérieux, ref. 43821-43829), comprising a chromogenic substrate for beta-glucuronidase, a chromogenic substrate for beta-glucosidase, a chromogenic substrate for beta-galactosidase and a substrate for deaminase. Temocillin is added to this base medium at the concentrations indicated hereinafter.
(§7) Temocillin range tested: 50-150-200-300 mg/l (disodium temocillin, Eumedica SA, Manage, Belgium).
(§8) The media are inoculated by depositing a spot: 1 μl of a microbial suspension in physiological saline at 0.5 McF, diluted to 1/10.
(§9) Incubation for 24 h at 37° C.
(§10) Reading after incubation for 24 hours. The medium with the smallest temocillin concentration on which a negative growth spot is obtained will be retained as the MIC. The spots having only 3 colonies or less or a total absence of growth were considered to be negative.

Non-OXA-48 strains = test: Temocillin MIC, agar dilution (Example 1); format: cell-based, Enterobacteriaceae
Procedure: as §5, §6, §7, §8, §9, §10

OXA-48 strains [3] = test: Temocillin MIC, agar dilution (Example 1); format: cell-based, Enterobacteriaceae
Procedure: as §5, §6, §7, §8, §9, §10

KPC strains = test: Temocillin MIC, agar dilution (Example 1); format: cell-based, Enterobacteriaceae; conditions: Ex 1; temocillin alone; MIC in mg/l
Procedure: as §5, §6, §7, §8, §9, §10

VIM strains = test: Temocillin MIC, agar dilution (Example 1); format: cell-based, Enterobacteriaceae; conditions: Ex 1; temocillin alone; MIC in mg/l
Procedure: as §5, §6, §7, §8, §9, §10

AmpC strains [4] = test: Temocillin MIC, agar dilution (Example 1); format: cell-based, Enterobacteriaceae; conditions: Ex 1; temocillin alone; MIC in mg/l
Procedure: as §5, §6, §7, §8, §9, §10

[5] = tested on: strains with impermeability-mediated resistance to carbapenems (IR); test: Temocillin MIC, agar dilution (Example 1); format: cell-based, Enterobacteriaceae; conditions: Ex 1; temocillin alone; MIC in mg/l
Procedure: as §5, §6, §7, §8, §9, §10

IMP strains = test: Temocillin MIC, agar dilution (Example 1); format: cell-based, Enterobacteriaceae; conditions: Ex 1; temocillin alone; MIC in mg/l
Procedure: as §5, §6, §7, §8, §9, §10

BLSE strains = test: Temocillin MIC, agar dilution (Example 1); format: cell-based, Enterobacteriaceae; conditions: Ex 1; temocillin alone; MIC in mg/l
Procedure: as §5, §6, §7, §8, §9, §10

[6] = tested on: strains with a metallo-carbapenemase; conditions: Livermore et al.; cited from earlier work
[7] = Ex 1, temocillin alone, MIC in mg/l

In the case of `CO[C@@]1(NC(=O)C(C(=O)O)c2ccsc2)C(=O)N2[C@@H](C(=O)O)C(C)(C)S[C@@H]21` (stereo partly shown) [temocillin], the “No. of OXA-48 strains with MIC 150” value (OXA-48 strains [1]; 0 mmol/l of EDTA) is reported as 0, the “No. of OXA-48 strains with MIC 200” value (OXA-48 strains [1]; 0 mmol/l of EDTA) is reported as 0 and the “No. of OXA-48 strains with MIC 300” value (OXA-48 strains [1]; 0 mmol/l of EDTA) is reported as 3. For the same compound, the “No. of OXA-48 strains with MIC >300” value (OXA-48 strains [1]; 0 mmol/l of EDTA) was 12, the “No. of OXA-48 strains with MIC ≦50” value (OXA-48 strains [1]; 0 mmol/l of EDTA) was 0 and the “No. of OXA-48 strains with MIC 150” value (OXA-48 strains [1]; 1.77 mmol/l of active EDTA) was 0. The “No. of OXA-48 strains with MIC 200” value (OXA-48 strains [1]; 1.77 mmol/l of active EDTA) was 0, the “No. of OXA-48 strains with MIC 300” value (OXA-48 strains [1]; 1.77 mmol/l of active EDTA) was 0 and the “No. of OXA-48 strains with MIC >300” value (OXA-48 strains [1]; 1.77 mmol/l of active EDTA) was 15. The “No. of OXA-48 strains with MIC ≦50” value (OXA-48 strains [1]; 1.77 mmol/l of active EDTA) was 0, the “No. of OXA-48 strains with MIC 150” value (OXA-48 strains [1]; 2.12 mmol/l of active EDTA) was 0 and the “No. of OXA-48 strains with MIC 200” value (OXA-48 strains [1]; 2.12 mmol/l of active EDTA) was 0. The “No. of OXA-48 strains with MIC 300” value (OXA-48 strains [1]; 2.12 mmol/l of active EDTA) was 0, the “No. of OXA-48 strains with MIC >300” value (OXA-48 strains [1]; 2.12 mmol/l of active EDTA) was 15 and the “No. of OXA-48 strains with MIC ≦50” value (OXA-48 strains [1]; 2.12 mmol/l of active EDTA) was 0. The “No. of OXA-48 strains with MIC 150” value (OXA-48 strains [1]; 2.47 mmol/l of active EDTA) was 0, the “No. of OXA-48 strains with MIC 200” value (OXA-48 strains [1]; 2.47 mmol/l of active EDTA) was 0 and the “No. of OXA-48 strains with MIC 300” value (OXA-48 strains [1]; 2.47 mmol/l of active EDTA) was 2. For the same compound, the “No. of OXA-48 strains with MIC >300” value (OXA-48 strains [1]; 2.47 mmol/l of active EDTA) was 13, the “No. of OXA-48 strains with MIC ≦50” value (OXA-48 strains [1]; 2.47 mmol/l of active EDTA) was 0 and the “No. of OXA-48 strains with MIC 150” value (OXA-48 strains [1]; 2.83 mmol/l of active EDTA) was 1. For the same compound, the “No. of OXA-48 strains with MIC 200” value (OXA-48 strains [1]; 2.83 mmol/l of active EDTA) was 0, the “No. of OXA-48 strains with MIC 300” value (OXA-48 strains [1]; 2.83 mmol/l of active EDTA) was 3 and the “No. of OXA-48 strains with MIC >300” value (OXA-48 strains [1]; 2.83 mmol/l of active EDTA) was 8. The “No. of OXA-48 strains with MIC ≦50” value (OXA-48 strains [1]; 2.83 mmol/l of active EDTA) was 3, the “No. of AmpC strains with MIC 150” value (AmpC strains [2]; 0 mmol/l of EDTA) was 0 and the “No. of AmpC strains with MIC 200” value (AmpC strains [2]; 0 mmol/l of EDTA) was 0. The “No. of AmpC strains with MIC 300” value (AmpC strains [2]; 0 mmol/l of EDTA) was 0, the “No. of AmpC strains with MIC >300” value (AmpC strains [2]; 0 mmol/l of EDTA) was 0 and the “No. of AmpC strains with MIC ≦50” value (AmpC strains [2]; 0 mmol/l of EDTA) was 10. For the same compound, the “No. of AmpC strains with MIC 150” value (AmpC strains [2]; 1.77 mmol/l of active EDTA) was 1, the “No. of AmpC strains with MIC 200” value (AmpC strains [2]; 1.77 mmol/l of active EDTA) was 0 and the “No. of AmpC strains with MIC 300” value (AmpC strains [2]; 1.77 mmol/l of active EDTA) was 0. For the same compound, the “No. of AmpC strains with MIC >300” value (AmpC strains [2]; 1.77 mmol/l of active EDTA) was 0, the “No. of AmpC strains with MIC ≦50” value (AmpC strains [2]; 1.77 mmol/l of active EDTA) was 9 and the “No. of AmpC strains with MIC 150” value (AmpC strains [2]; 2.12 mmol/l of active EDTA) was 1. The “No. of AmpC strains with MIC 200” value (AmpC strains [2]; 2.12 mmol/l of active EDTA) was 0, the “No. of AmpC strains with MIC 300” value (AmpC strains [2]; 2.12 mmol/l of active EDTA) was 0 and the “No. of AmpC strains with MIC >300” value (AmpC strains [2]; 2.12 mmol/l of active EDTA) was 0. The “No. of AmpC strains with MIC ≦50” value (AmpC strains [2]; 2.12 mmol/l of active EDTA) was 9, the “No. of AmpC strains with MIC 150” value (AmpC strains [2]; 2.47 mmol/l of active EDTA) was 0 and the “No. of AmpC strains with MIC 200” value (AmpC strains [2]; 2.47 mmol/l of active EDTA) was 0. The “No. of AmpC strains with MIC 300” value (AmpC strains [2]; 2.47 mmol/l of active EDTA) was 0, the “No. of AmpC strains with MIC >300” value (AmpC strains [2]; 2.47 mmol/l of active EDTA) was 0 and the “No. of AmpC strains with MIC ≦50” value (AmpC strains [2]; 2.47 mmol/l of active EDTA) was 10. The “No. of AmpC strains with MIC 150” value (AmpC strains [2]; 2.83 mmol/l of active EDTA) was 0, the “No. of AmpC strains with MIC 200” value (AmpC strains [2]; 2.83 mmol/l of active EDTA) was 0 and the “No. of AmpC strains with MIC 300” value (AmpC strains [2]; 2.83 mmol/l of active EDTA) was 0. The “No. of AmpC strains with MIC >300” value (AmpC strains [2]; 2.83 mmol/l of active EDTA) was 0, the “No. of AmpC strains with MIC ≦50” value (AmpC strains [2]; 2.83 mmol/l of active EDTA) was 10 and the “No. of NDM-1 strains with MIC 150” value (NDM-1 strains) was 1. For the same compound, the “No. of NDM-1 strains with MIC 200” value (NDM-1 strains) was 0, the “No. of NDM-1 strains with MIC 300” value (NDM-1 strains) was 0 and the “No. of NDM-1 strains with MIC >300” value (NDM-1 strains) was 0. The “No. of NDM-1 strains with MIC ≦50” value (NDM-1 strains) was 25, the MIC (Non-OXA-48 strains; most of the non-OXA-48 strains) was ≤ 200 µg/mL and the MIC (Non-OXA-48 strains; only a few non-OXA-48 strains) was > 300 µg/mL. For the same compound, the MIC (OXA-48 strains [3]) was > 300 µg/mL, the “No. of OXA-48 strains with MIC 150” value (OXA-48 strains [3]; [7]) was 0 and the “No. of OXA-48 strains with MIC 200” value (OXA-48 strains [3]; [7]) was 0. The “No. of OXA-48 strains with MIC 300” value (OXA-48 strains [3]; [7]) was 0, the “No. of OXA-48 strains with MIC >300” value (OXA-48 strains [3]; [7]) was 15 and the “No. of OXA-48 strains with MIC ≦50” value (OXA-48 strains [3]; [7]) was 1. For the same compound, the “No. of KPC strains with MIC 150” value (KPC strains) was 1, the “No. of KPC strains with MIC 200” value (KPC strains) was 0 and the “No. of KPC strains with MIC 300” value (KPC strains) was 0. For the same compound, the “No. of KPC strains with MIC >300” value (KPC strains) was 3, the “No. of KPC strains with MIC ≦50” value (KPC strains) was 8 and the “No. of VIM strains with MIC 150” value (VIM strains) was 5. For the same compound, the “No. of VIM strains with MIC 200” value (VIM strains) was 1, the “No. of VIM strains with MIC 300” value (VIM strains) was 0 and the “No. of VIM strains with MIC >300” value (VIM strains) was 1. For the same compound, the “No. of VIM strains with MIC ≦50” value (VIM strains) was 9, the “No. of AmpC strains with MIC 150” value (AmpC strains [4]) was 0 and the “No. of AmpC strains with MIC 200” value (AmpC strains [4]) was 0. The “No. of AmpC strains with MIC 300” value (AmpC strains [4]) was 0, the “No. of AmpC strains with MIC >300” value (AmpC strains [4]) was 0 and the “No. of AmpC strains with MIC ≦50” value (AmpC strains [4]) was 10. For the same compound, the “No. of IR strains with MIC 150” value [5] was 2, the “No. of IR strains with MIC 200” value [5] was 0 and the “No. of IR strains with MIC 300” value [5] was 0. For the same compound, the “No. of IR strains with MIC >300” value [5] was 0, the “No. of IR strains with MIC ≦50” value [5] was 8 and the “No. of IMP strains with MIC 150” value (IMP strains) was 0. For the same compound, the “No. of IMP strains with MIC 200” value (IMP strains) was 0, the “No. of IMP strains with MIC 300” value (IMP strains) was 0 and the “No. of IMP strains with MIC >300” value (IMP strains) was 1. For the same compound, the “No. of IMP strains with MIC ≦50” value (IMP strains) was 12, the “No. of BLSE strains with MIC 150” value (BLSE strains) was 0 and the “No. of BLSE strains with MIC 200” value (BLSE strains) was 0. For the same compound, the “No. of BLSE strains with MIC 300” value (BLSE strains) was 0, the “No. of BLSE strains with MIC >300” value (BLSE strains) was 2 and the “No. of BLSE strains with MIC ≦50” value (BLSE strains) was 8. The “strains resistant to temocillin” value [6] was 32/35.
